Assay results from patent US5626864A, “Preparation of colloidal aqueous solutions of active substances of low solubility” (priority 1993, dated 1997).
Values after ≈ are worked out from the molar mass of the structure shown. Counter-ions that a name gives are not always drawn. Like-named read-outs stand apart in the source and are kept apart here.

Experiments:
[1] = Sterile filtration through a 0.2 μm filter (criterion for successful solubilization); format: physicochemical
Protocol: The following examples illustrate the invention. The criterion for successful solubilization is the possibility of sterile filtration through a 0.2 μm filter.
(§1) 40 mg of Z were dissolved in 10 ml of dichloromethane/methanol (9+1). All the solvent was removed again from the solution in a rotary evaporator under reduced pressure. 8 ml of a buffer solution (consisting of o-phsophoric acid [0.01 M] and sucrose [0.265 M] and EDTA disodium salt [0.1 mg/ml], pH about 1.9) were added to the residue, and the flask was rotated on the rotary evaporator (without reducing the pressure) with the water at 50° C for 1 h. […] Cooling to room temperature was followed by titration with 2 molar sodium hydroxide solution to pH 6.8, and the total volume was then made up to 10 ml with the abovementioned buffer solution (pH 6.8; titrated with NaOH). […] The clear supernatant was filtered through a 0.2 micrometer syringe filter, and the active substance concentration in this solution was determined by spectrophotometry.
(§2) The experiment was carried out like experiment A but 1.0 g of phospholipid (egg lecithin E 100, from Lipoid KG, Ludwigshafen) was weighed in addition to the active substance.
(§3) The experiment was carried out like experiment B, but after addition of the buffer solution (pH 1.9) and stirring at 50° C. (1 h), 100 microliters of a dilute aqueous solution of glacial acetic acid (120.1 g/l) were added, and this solution was then titrated to pH 4.6 with sodium hydroxide solution (2 molar).
The pH was adjusted to 4.8.

[2] = Physical stability of the solutions (precipitation / flocculation); format: physicochemical
Protocol: as §1, with “spectrophotometry. The active substance content in this solution was below 0.1 mg/ml.” for “spectrophotometry.”
as §2
The active substance content of the solution which had been titrated to pH 6.8 and sterilized by filtration was 4.0 mg/ml. The solution slowly flocculated out after about 12-24 h, both at room temperature and in a refrigerator.
as §3

[3] = Active substance content of solution after 0.2 μm filtration (spectrophotometry); format: physicochemical
Protocol: A derivative of these bisnaphthalimides [drawing 1] was used to investigate the solubility in aqueous formulations as follows: […]
as §1, with “spectrophotometry. The active substance content in this solution was below 0.1 mg/ml.” for “spectrophotometry.”
as §2, §3

[4] = cited from earlier work
[5] = eg. intravenous administration; cited from earlier work
[6] = Comparative Example: like Example 1, experiment C

**Q.** Which sterile filtration [1] does the source give for O=C(C(c1ccccc1)c1ccccc1)N1CCN(CC(O)COc2cccc3ncccc23)CC1 (stereo not drawn) here?
**A.** It was possible to sterilize the resulting solution by filtration

**Q.** Which results are given for O=C1c2cccc3cc([N+](=O)[O-])cc(c23)C(=O)N1CCCCNCCCN1C(=O)c2cccc3cc([N+](=O)[O-])cc(c23)C1=O [Z]?
**A.** dissolution in acidic buffer ([2]; Experiment A: buffer pH about 1.9, 50° C, 1 h, no phospholipid): It was possible in this way to dissolve a considerable portion of the active substance; precipitation on titration ([2]; Experiment A: no phospholipid, cooled, titrated to pH 6.8): Most of the active substance precipitated again; time to flocculation of solution ([2]; Experiment B: egg lecithin, pH 6.8, room temperature and refrigerator): 12 to 24 h; stability of solution ([2]; Experiment C: egg lecithin, pH 4.6, room temperature and refrigerator): stable for weeks without flocculating out; solubility ([3]; Experiment C: egg lecithin E 100, acetic acid, titrated to pH 4.6, sterile filtration): 4000 µg/mL (≈ 6.72 mM); solubility ([3]; egg lecithin e 100 solution, Experiment B (comparative): 1.0 g egg lecithin E 100, titrated to pH 6.8, sterilized by filtration): 4000 µg/mL (≈ 6.72 mM); solubility ([3]; sucrose/phosphoric acid buffer, Experiment A (comparative): no phospholipid, sucrose/phosphoric acid, titrated to pH 6.8, 0.2 μm filtered): < 100 µg/mL

**Q.** For CCS(=O)(=O)Oc1ccc2c(C)c(C)c(=O)oc2c1 [esuprone], which “filtration through 0.2 μm or 0.45 μm filter” value [1, 6] is on record?
**A.** could not be filtered either through a 0.2 μm filter or through a 0.45 μm filter

**Q.** And the “particle size of resulting solution” value [1, 6]?
**A.** contained large colloidal particles

**Q.** And the solubility in water ([4]; water)?
**A.** 15 µg/mL (≈ 0.0531 mM)

**Q.** What does the source list for CC(C)[C@@](C#N)(CCCN(C)CCc1ccccc1)c1ccccc1 [levemopamil hydrochloride]?
**A.** local intolerance on administration [5]: show problems due to local intolerance on administration (eg. vein irritation on intravenous administration); solubility in water ([4]; in words): adequately soluble in water

**Q.** For dolastatin 15, which sterile filtration ([1]; Example 3: active substance 10 mg/ml, phospholipid 100 mg/ml) is on record?
**A.** It was possible to sterilize the solution by filtration

**Q.** What about the solubility in water ([4]; in words) of the same compound?
**A.** low solubility in water
